The values below come from PMC6100113, “Involvement of CYP4F2 in the Metabolism of a Novel Monophosphate Ester Prodrug of Gemcitabine and Its Interaction Potential In Vitro” (Molecules : A Journal of Synthetic Chemistry and Natural …, 2018).

This data set has as its target T1, CYP3A4 (Homo sapiens, UniProt P08684).
T1 construct: purchased Corning Gentest
The data set can be described thus: Reaction phenotyping with recombinant CYP3A4. In kind it is in vitro ADME. The following applies: recombinant CYP3A4 50 nM, 1 μM, NADPH. The procedure:
Compound-3 was incubated separately with human cDNA-expressed cytochrome P450s (CYP1A2, CYP2B6, CYP2C8, CYP2C9, CYP2C19, CYP2D6, CYP3A4, CYP4A11, CYP4F2 and CYP4F3). The incubation mixtures contained individual CYP isoenzymes (50 nM), potassium phosphate buffer (100 mM, pH 7.4), NADPH (1 mM), and Compound-3 (1 µM). The final volume of the incubation mixture was 50 µL. Before the start of the incubation, reaction mixtures were warmed up at 37 °C for 10 min. The reaction was initiated with the addition of NADPH and the incubations were performed at 37 °C in a water bath. After 60 min of incubation, the reactions were terminated with an equal volume of ice-cold acetonitrile containing the internal standard. Control samples without NADPH but substrates were included. The samples were then centrifuged and aliquots of 10 μL of the supernatants were transferred onto LC-MS/MS for the analysis of Compound-3 and M4 (carboxylic acid) levels.

T1 sequence (P08684 whole entry): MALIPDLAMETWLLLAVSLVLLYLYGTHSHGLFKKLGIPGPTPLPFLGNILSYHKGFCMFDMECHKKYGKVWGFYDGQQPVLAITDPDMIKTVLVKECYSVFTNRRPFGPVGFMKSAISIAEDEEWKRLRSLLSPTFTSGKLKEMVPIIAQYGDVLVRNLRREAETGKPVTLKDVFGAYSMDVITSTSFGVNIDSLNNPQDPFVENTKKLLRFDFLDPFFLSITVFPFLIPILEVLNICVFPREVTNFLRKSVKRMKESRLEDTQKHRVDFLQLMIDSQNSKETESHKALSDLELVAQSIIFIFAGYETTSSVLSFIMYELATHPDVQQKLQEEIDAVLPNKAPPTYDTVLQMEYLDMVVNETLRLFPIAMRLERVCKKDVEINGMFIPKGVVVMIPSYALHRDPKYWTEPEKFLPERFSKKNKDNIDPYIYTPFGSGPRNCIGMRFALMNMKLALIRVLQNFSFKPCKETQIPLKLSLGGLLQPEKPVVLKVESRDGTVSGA

On to `CCCCCCCCCCCCCCCCCCOCCOP(=O)(O)OCC1OC(n2ccc(N)nc2=O)C(F)(F)C1O` (stereo not shown) [Compound-3], for which the “metabolism of Compound-3 by CYP isozyme” value is “moderate metabolic activity”.
